In patent publication US20040106545A1, “Compounds and methods for modulating cell adhesion” (priority 1996, published 2004):
Entries after “also recorded” stand apart in the source; their conditions may differ. Read-outs that look alike come from different tables or passages of the source. Positions of bridges follow the written chain, without caps; N, C: chain ends. Residues, ends and D or L forms follow the SMILES beside them.

How the values were obtained:
chick N-cadherin = target: T1, chick N-cadherin (Gallus gallus, UniProt P10288); assay: Neurite outgrowth of rat cerebellar neurons on N-cadherin expressing 3T3 monolayers (Example 15); format: cell-based; conditions: for inhibitory activity on N-cadherin dependent neurite outgrowth, structure/activity statements: Tables 8 and 9
T1 construct: expressed in transfected cells; host or cells: 3T3 fibroblasts (monolayer); rat post-natal day 2-3 cerebellar neurons plated on top
T1 sequence (P10288 165-912): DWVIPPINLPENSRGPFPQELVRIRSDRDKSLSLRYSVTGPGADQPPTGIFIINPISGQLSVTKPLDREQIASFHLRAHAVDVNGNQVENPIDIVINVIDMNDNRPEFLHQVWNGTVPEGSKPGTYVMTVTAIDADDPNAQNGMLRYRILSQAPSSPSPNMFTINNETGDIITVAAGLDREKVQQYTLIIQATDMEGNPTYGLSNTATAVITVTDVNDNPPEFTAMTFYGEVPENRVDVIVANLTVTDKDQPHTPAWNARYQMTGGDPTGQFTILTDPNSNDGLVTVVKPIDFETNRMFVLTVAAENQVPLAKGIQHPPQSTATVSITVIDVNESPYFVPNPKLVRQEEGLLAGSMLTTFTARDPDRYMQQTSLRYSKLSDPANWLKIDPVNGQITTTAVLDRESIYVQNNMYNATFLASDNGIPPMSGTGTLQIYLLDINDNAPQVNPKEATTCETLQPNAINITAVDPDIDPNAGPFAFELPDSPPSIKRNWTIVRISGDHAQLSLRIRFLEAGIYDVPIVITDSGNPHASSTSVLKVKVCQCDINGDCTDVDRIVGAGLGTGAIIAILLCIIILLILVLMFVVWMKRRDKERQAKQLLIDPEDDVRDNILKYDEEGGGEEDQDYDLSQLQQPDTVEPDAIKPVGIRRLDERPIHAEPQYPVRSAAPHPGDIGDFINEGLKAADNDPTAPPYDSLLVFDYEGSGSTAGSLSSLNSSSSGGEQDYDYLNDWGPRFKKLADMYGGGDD
Method: (§1) Cell culture and neurite outgrowth assays. Co-cultures of cerebellar neurons on monolayers of control 3T3 cells and monolayers of transfected 3T3 cells that express physiological levels of chick N-cadherin or human L1 were established as previously described (Williams et al., Neuron 13:583-594, 1994). In brief, 80,000 3T3 cells (control and transfected) were plated into individual chambers of an eight-chamber tissue culture slide coated with polylysine and fibronectin and cultured in DMEM/10% FCS. After 24 hours, when confluent monolayers had formed, the medium was removed and 3000 cerebellar neurons isolated from post-natal day 2-3 rats were plated into each well in SATO media (Doherty et al., Nature 343:464-466, 1990) supplemented with 2% FCS. All of the test peptides were added immediately before the neurons as a 2× stock prepared in SATO/2% FCS. The co-cultures were maintained for 16-18 hours, at which time they were fixed and immunostained for GAP-43 which is present only in the neurons and delineates the neuritic processes. The mean length of the longest neurite per cell was measured for 150-200 neurons sampled in replicate cultures as previously described (Williams et al., Neuron 13:583-594, 1994). […] Dose-response curves were evaluated and the EC50 values determined.

SKOV3 cells = assay: Disruption of human ovarian cancer cell (SKOV3) adhesion; format: cell-based; conditions: 1 mg/mL media, within 24 hours
Method: FIGS. 37A and 37B are photographs illustrating the effect of N—Ac-CHAVC-Y—NH2 (SEQ ID NO:84) on SKOV3 cell adhesion. A confluent culture of SKOV3 cells was briefly trypsinated and counted using a hemacytometer. The cells were diluted to 5×10^3/mL in MEM (Gibco BRL) containing 10% FBS (Wisent). A 10 mg/mL solution of peptide was added directly to the media at a concentration of 1 mg/mL. The plate was incubated in a humidified chamber at 37° C. for 24 hours in 5% CO2. Morphological changes were evaluated after 24 hours.
The human ovarian cancer cell line SKOV3 (ATCC #HTB-77) expresses N-cadherin. SKOV3 cells were cultured in a modified MEM-based media containing 10% FCS. Cells were grown in T-250 culture flasks and maintained by periodic subculturing. Cyclic peptides were tested on cells grown in individual wells of 96-well culture dishes (surface area of each well was 0.32 cm^2). Cells were harvested from flasks and seeded at a density of 50,000 cells per well in 0.1 mL media containing the cyclic peptides at concentrations of 1, 0.1, or 0.01 mg/mL, or in the absence of cyclic peptide. Media control wells were also established. Cultures were evaluated periodically by microscopic examination under both bright field and phase contrast conditions. Cultures were maintained for 48 hours.

[1] = tested on: Madin Darby canine kidney (MDCK) cells; format: cell-based; conditions: 18 h
[2] = tested on: Madin Darby canine kidney (MDCK) cells; format: cell-based; conditions: for EC50, decrease of electrical resistance across MDCK cell monolayer: 18 hours
Method: Yet another assay evaluates the effect of a modulating agent on the electrical resistance across a monolayer of cells. For example, Madin Darby canine kidney (MDCK) cells can be exposed to the modulating agent dissolved in medium (e.g., at a final concentration of 0.5 mg/ml for a period of 24 hours). The effect on electrical resistance can be measured using standard techniques. This assay evaluates the effect of a modulating agent on tight junction formation in epithelial cells. In general, the presence of 500 μg/mL modulating agent should result in a statistically significant decrease in electrical resistance after 24 hours.
Madin Darby canine kidney (MDCK) cells were plated in Millicells (Millipore, Bedford, Mass.), at a density of 300,000 cells per Millicell, and cultured in Dulbecco's Modified Eagle Medium (DMEM; Sigma, St. Louis, Mo.) containing 5% fetal calf serum (Sigma, St. Louis, Mo.) until monolayers formed. Monolayers were exposed to the modulating agent dissolved in medium. The electrical resistance was measured using the EVOM device (World Precision Instruments, Sarasota, Fla.). At the time of measurement, fresh medium, with or without the modulating agent, may be added to the Millicells.

PC-3 [3] = assay: Cytotoxicity, MTT assay, PC-3; format: cell-based, human
Method: (§2) N—Ac-CHAVC-NH2 (SEQ ID NO:10) and the control peptide N—Ac-CHGVC-NH2 (SEQ ID NO:11) were evaluated for possible cytotoxic effects on human microvascular endothelial (HMVEC; Clonetics), human umbilical vein endothelial (HUVEC; ATCC #CRL-1730), IAFp2 (human fibroblast cell line; Institute Armand-Frapier, Montreal, Quebec), WI-38 (human fibroblast cell line; ATCC #CCL-75), MDA-MB231 (human breast cancer cell line; ATCC #HTB-26), and PC-3 (human prostate cancer cell line; ATCC #CRL-1435) cells utilizing the MTT assay (Plumb et al., Cancer Res. 49:4435-4440, 1989). Neither of the peptides was cytotoxic at concentrations up to and including 100 μM. Similarly, neither of the peptides was capable of inhibiting the proliferation of the above cell lines at concentrations up to 100 μM, as judged by ^3H-thymidine incorporation assays.

MDA-MB231 [4] = assay: Cytotoxicity, MTT assay, MDA-MB231; format: cell-based, human
Method: as §2

N-cadherin = target: T2, N-cadherin (Gallus gallus, UniProt P10288); assay: Neurite outgrowth inhibition, rat neurons (Example 21); format: cell-based; conditions: read-out: % Inhibition of neurite outgrowth; 250 μg/mL
T2 construct: expressed in transfected cells; host or cells: 3T3 fibroblasts (monolayer)
T2 sequence (P10288 165-912): T1 sequence (P10288 165-912)

HMVEC = format: cell-based, human; conditions: 3 h
Method: as §2

HUVEC = format: cell-based, human; conditions: 3 h
Method: as §2

PC-3 [5] = format: cell-based, human; conditions: 3 h
Method: as §2

WI-38 = format: cell-based, human; conditions: 3 h
Method: as §2

IAFp2 = format: cell-based, human; conditions: 3 h
Method: as §2

MDA-MB231 [6] = format: cell-based, human; conditions: 3 h
Method: as §2

L1 = L1 (Homo sapiens, UniProt P32004); assay: Neurite outgrowth of rat cerebellar neurons on L1 expressing 3T3 monolayers (Example 15); format: cell-based; design: expressed in transfected cells; rat cerebellar neurons on top; conditions: for inhibition at 125 µg/mL: 125 μg/ml, read-out: % Inhibition of L1 Response; for effect on L1 stimulated neurite outgrowth (in words): concentrations that inhibited the N-cadherin response (100 μg/mL in FIG. 24)
Method: as §1
Other cell adhesion molecules, such as L1, can stimulate neurite outgrowth, and this response shares the same downstream signaling steps as the N-cadherin response. […] As previously reported, L1 stimulated neurite outgrowth from cerebellar neurons.

[7] = 250 μg/mL, 16-18 hours, read-out: % Inhibition of N-Cadherin Dependent Neurite Outgrowth

Chain of L1 (P32004 20-1257): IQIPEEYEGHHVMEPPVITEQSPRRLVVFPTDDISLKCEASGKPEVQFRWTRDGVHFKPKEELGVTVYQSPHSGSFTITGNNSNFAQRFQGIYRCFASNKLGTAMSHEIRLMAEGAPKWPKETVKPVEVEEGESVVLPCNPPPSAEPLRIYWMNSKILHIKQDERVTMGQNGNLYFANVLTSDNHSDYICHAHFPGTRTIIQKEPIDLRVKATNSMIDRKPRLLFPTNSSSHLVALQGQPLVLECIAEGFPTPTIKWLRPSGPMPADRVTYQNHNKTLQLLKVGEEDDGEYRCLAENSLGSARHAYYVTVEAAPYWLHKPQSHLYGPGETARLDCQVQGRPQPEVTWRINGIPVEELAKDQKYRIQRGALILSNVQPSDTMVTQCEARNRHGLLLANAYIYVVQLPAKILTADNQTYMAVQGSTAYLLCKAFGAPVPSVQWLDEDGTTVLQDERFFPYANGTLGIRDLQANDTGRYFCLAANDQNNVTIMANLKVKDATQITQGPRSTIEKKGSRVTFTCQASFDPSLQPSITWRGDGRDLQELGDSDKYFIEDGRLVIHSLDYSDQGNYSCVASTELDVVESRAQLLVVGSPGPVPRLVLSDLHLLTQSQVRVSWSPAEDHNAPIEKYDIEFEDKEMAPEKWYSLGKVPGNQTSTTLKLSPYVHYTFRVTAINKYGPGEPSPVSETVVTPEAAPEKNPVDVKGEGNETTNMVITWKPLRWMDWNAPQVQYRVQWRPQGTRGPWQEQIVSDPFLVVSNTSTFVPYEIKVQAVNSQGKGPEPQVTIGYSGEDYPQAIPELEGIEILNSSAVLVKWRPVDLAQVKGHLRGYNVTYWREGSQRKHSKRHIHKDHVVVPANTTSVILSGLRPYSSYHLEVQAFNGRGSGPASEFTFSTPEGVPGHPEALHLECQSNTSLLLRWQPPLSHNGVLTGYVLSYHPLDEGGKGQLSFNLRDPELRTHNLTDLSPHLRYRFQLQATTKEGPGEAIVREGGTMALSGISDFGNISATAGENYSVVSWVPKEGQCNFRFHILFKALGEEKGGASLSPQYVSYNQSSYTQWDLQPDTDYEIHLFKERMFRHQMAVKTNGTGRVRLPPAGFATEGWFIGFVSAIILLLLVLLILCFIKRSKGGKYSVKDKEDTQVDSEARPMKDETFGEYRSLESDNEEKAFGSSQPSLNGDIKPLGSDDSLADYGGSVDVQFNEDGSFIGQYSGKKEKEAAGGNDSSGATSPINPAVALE

For `CC(=O)N[C@H]1CSSC[C@@H](C(=O)N[C@@H](Cc2ccc(O)cc2)C(N)=O)NC(=O)[C@H](C(C)C)NC(=O)[C@H](C)NC(=O)[C@H](Cc2c[nH]cn2)NC1=O` [N—Ac—CHAVCY—NH2] (Ac-CHAVCY-NH2; disulfide 1-5), the “% inhibition of N-cadherin dependent neurite outgrowth” value (chick N-cadherin; 125 μg/mL, 16-18 hours) was 89.8 ± 6.8%, the inhibition at 125 µg/mL (chick N-cadherin; 125 μg/mL, 16-18 hours, read-out: % Inhibition of N-Cadherin Dependent Neurite Outgrowth) was 89.9% and the “disruption of SKOV3 cell adhesion” value (SKOV3 cells) was “disrupted SKOV3 cell adhesion”. The EC50 [1] was 210 µM and the “effect on electrical resistance across MDCK cells (in words)” value [2] was “the most active”.

For `CC(=O)N[C@H]1CSSC[C@@H](C(N)=O)NC(=O)[C@H](C(C)C)NC(=O)[C@H](C)NC(=O)[C@H](Cc2c[nH]cn2)NC(=O)[C@H](CO)NC1=O` [N—Ac—CSHAVC—NH2, N-Ac-Cys-Ser-His-Ala-Val-Cys-NH2] (Ac-CSHAVC-NH2; disulfide 1-6), the “reduction in inhibitory activity on flanking HAV with E-cadherin amino acids” value (chick N-cadherin; 250 μg/mL (Table 8)) was “complete”, the EC50 [1] was 20 µM and the IC50 (PC-3 [3]) was greater than 100 µM. For the same compound, the IC50 (MDA-MB231 [4]) was greater than 100 µM, the inhibition at 250 µg/mL (N-cadherin) was 0% and the IC50 (HMVEC) was greater than 100 µM. It also gave an IC50 (HUVEC) greater than 100 µM, an IC50 (PC-3 [5]) greater than 100 µM and an IC50 (WI-38) greater than 100 µM. For the same compound, the IC50 (IAFp2) was greater than 100 µM and the IC50 (MDA-MB231 [6]) was greater than 100 µM.

In the case of `CC(=O)N[C@H]1CSSC[C@@H](C(N)=O)NC(=O)[C@H](CC(=O)O)NC(=O)[C@H](C(C)C)NC(=O)[C@H](C)NC(=O)[C@H](Cc2c[nH]cn2)NC1=O` [N—Ac—CHAVDC—NH2] (Ac-CHAVDC-NH2; disulfide 1-6), the “inhibition of N-cadherin dependent neurite outgrowth (in words)” value (chick N-cadherin; 250 μg/mL) is reported as “potent inhibitors of neurite outgrowth”, the “inhibitory activity on N-cadherin dependent neurite outgrowth, structure/activity statements” value (chick N-cadherin) is reported as “dramatically increased the inhibitory activity” and the inhibition at 125 µg/mL (L1) is reported as 9.6 ± 3.3%. The “effect on L1 stimulated neurite outgrowth (in words)” value (L1) was “did not interfere with the ability of neurons to extend neurites over 3T3 cells expressing L1”, the inhibition at 250 µg/mL (N-cadherin) was 88% and the “effect on electrical resistance across MDCK cells (in words)” value [2] was “complete abrogation of E-cadherin specific activity”. For the same compound, the “EC50, decrease of electrical resistance across MDCK cell monolayer” value [2] was “INACTIVE”.

In the case of `CC[C@H](C)[C@@H]1NC(=O)[C@H](CC(=O)O)NC(=O)[C@H](C(C)C)NC(=O)[C@H](C)NC(=O)[C@H](Cc2c[nH]cn2)NC(=O)[C@@H](NC(C)=O)CSSC[C@@H](C(N)=O)NC(=O)[C@H](CC(N)=O)NC1=O` (Ac-CHAVDINC-NH2; disulfide 1-8), the “inhibitory activity on N-cadherin dependent neurite outgrowth, structure/activity statements” value (chick N-cadherin; listed as N—Ac-CHAVDINC-NH2) is reported as “only a slight loss in activity; also recorded: potent inhibitors”, the inhibition at 125 µg/mL (L1) is reported as 1.7 ± 7.3% and the “effect on L1 stimulated neurite outgrowth (in words)” value (L1; listed as N—Ac-CHAVDINC-NH2) is reported as “did not interfere with the ability of neurons to extend neurites over 3T3 cells expressing L1”. The “effect on electrical resistance across MDCK cells (in words)” value [2] was “complete abrogation of E-cadherin specific activity” and the “EC50, decrease of electrical resistance across MDCK cell monolayer” value [2] was “INACTIVE”.

For `CC(=O)N[C@H]1CSSC[C@@H](C(=O)N[C@@H](CO)C(N)=O)NC(=O)[C@H](C(C)C)NC(=O)[C@H](C)NC(=O)[C@H](Cc2c[nH]cn2)NC1=O` [N—Ac—CHAVCS—NH2] (Ac-CHAVCS-NH2; disulfide 1-5), the inhibition at 250 µg/mL (chick N-cadherin; [7]) was 6.9 ± 5.4% and the EC50 [1] was 490 µM.

With `CC(=O)N[C@H]1CSSC[C@@H](C(=O)N[C@@H](CO)C(=O)N[C@@H](CO)C(N)=O)NC(=O)[C@H](C(C)C)NC(=O)[C@H](C)NC(=O)[C@H](Cc2c[nH]cn2)NC1=O` [N—Ac—CHAVCSS—NH2] (Ac-CHAVCSS-NH2; disulfide 1-5) the inhibition at 250 µg/mL (chick N-cadherin; [7]) was 37.8 ± 4% and the EC50 [1] was 430 µM.

Work on `CC(=O)N[C@H]1CSSC[C@@H](C(=O)N[C@H](C(N)=O)[C@@H](C)O)NC(=O)[C@H](C(C)C)NC(=O)[C@H](C)NC(=O)[C@H](Cc2c[nH]cn2)NC1=O` [N—Ac—CHAVCT—NH2] (Ac-CHAVCT-NH2; disulfide 1-5) yielded an inhibition at 250 µg/mL (chick N-cadherin; [7]) of 23.7 ± 6.6% and an EC50 [1] of 480 µM.

For `CC(C)[C@@H]1NC(=O)[C@H](C)NC(=O)[C@H](Cc2c[nH]cn2)NC(=O)[C@@H](NC=O)CSSC[C@@H](C(N)=O)NC1=O` [H—C(O)—NH—CHAVC—NH2], the EC50 [1] was 560 µM and the “effect on electrical resistance across MDCK cells (in words)” value [2] was “decrease in potency”.
